Tests used:
DN T cells = experiment: T-cell subset analysis by flow cytometry (DN T cells); type: in vivo, human; conditions: after 3 months; baseline 6.2±0.5%; p=0.043
Procedure: Unstimulated cells and cells stimulated with CD3/CD28 for 16 h were examined and cell death pathway selection in T cells was measured by concurrent staining with annexin V-Alexa 647 and propidium iodide (PrI) as well as cell type-specific antigens. T-cell subsets were analyzed by staining with antibodies to CD4, CD8, and CD25. B cells were identified by CD 19 staining

FoxP3 = FoxP3 expression in T-cell subsets by flow cytometry; type: in vivo, human
Procedure: Foxp3 expression was measured in permeabilized cells using Alexa-647-conjugated antibody from BioLegend (San Diego, Calif.; cat No 320014). Up to 11 parameters were recorded simultaneously using a Becton Dickinson LSRII flow cytometer equipped with 20 mW solid-state Nd-YAG (emission at 355 nm), 20 mW argon (emission at 488 nm), 10 mW diode pumped solid state yellow-green (emission 561 nm) and 16 mW heliumneon lasers (emission at 634 nm). Each patient's cells were processed and analyzed in parallel with a matched control. […] FIG. 5A: FoxP3 expression in CD4^+/CD25^+ and CD8^+/CD25^+ T cell subsets of lupus and control donors matched for age, gender, and ethnicity by flow cytometry. Red and blue values indicate percentage of FoxP3^+ cells in lupus and control donors, respectively. FIG. 5B: Cumulative analysis of FoxP3 expression in CD25^+ T-cell subsets in lupus subjects and matched controls. p values reflect comparison with two-tailed unpaired t-test. FIG. 5C: Effect of NAC on Foxp3 expression in CD25^+ T cell subsets of lupus patients exposed to all doses considered together. p values reflect comparison with two-tailed paired t-test.

GSH in whole blood = experiment: HPLC assay of GSH in whole blood of SLE patients; type: in vivo, human; conditions: after 1 and 2 months of NAC treatment
Procedure: Reduced glutathione (GSH) was measured by reverse phase ion-exchange HPLC using UV detection at 365 nm, as described in Gergely, P. J. et al., “Mitochondrial hyperpolarization and ATP depletion in patients with systemic lupus erythematosus,” Arth. Rheum., 46: 175-190 (2002); and Hanczko, R. et al., “Prevention of hepatocarcinogenesis and acetaminophen-induced liver failure in transaldolase-deficient mice by N-acetylcysteine,” J. Clin. Invest., 119: 1546-1557 (2009). The disclosures of each of these references are incorporated by reference herein in their entirety.
GSH was measured in whole blood and peripheral blood lymphocytes (PBL) before (visit 1; 0 h) and after the first NAC/placebo dose (visit 1; 3 h and 6 h) and upon each monthly follow-up visit (visits 2-4: between 9-11 am after having taken the last NAC/placebo capsule 8 pm the night before), and after 1 month wash-out (visit 5). HPLC analysis required ˜0.25 ml of whole blood and 5×10^6 PBL which were obtained from a total of 10 ml of blood collected at each time point.

mTOR [1] = biological target: mTOR (Homo sapiens, UniProt P42345); conditions: O'Loghlen et al. (2006); cited from earlier work
mTOR [2] = experiment: mTOR activity by phosphorylation of S6 ribosomal protein (pS6-RP) in T-cell subsets; type: in vivo, human; conditions: for pS6-RPhi T cells in the DN T-cell compartment: baseline 22.5±3.7%
Procedure: mTOR activity was assessed by phosphorylation of its downstream substrate S6 ribosomal protein (pS6-RP) using a monoclonal antibody to pS6-RP (Cell Signaling; Beverly, Mass.; Cat. No. 4851) in cells permeabilized with Cytofix/CytopermPlus (BD Biosciences). […] FIG. 4A: Assessment of pS6-RP in CD3^+, CD4^+, CD8^+, and DN T cells from control (blue histograms) and lupus donors (red histograms). Blue/red values show the percentage of cell populations with increased mTOR activity in control and lupus T-cell subsets, respectively. FIG. 4B: Cumulative analysis of mTOR activity in T-cell subsets of all lupus patients relative to all healthy controls. Values represent mean±SEM of cell populations with increased mTOR activity. p values reflect comparison of lupus and healthy donors with unpaired two-tailed t-test before treatment. FIG. 4C: Effect of NAC on mTOR activity measured by the prevalence of pS6-RP^hi T cells in lupus patients exposed to all doses considered together. p values reflect comparison to pre-treatment visit 1 using two-tailed paired t-test. FIG. 4D: Effect of NAC on CD3/CD28-induced mTOR activity in T cell subsets of lupus patients exposed to all doses considered together.

**Q.** Which results are given for `CC(=O)N[C@@H](CS)C(=O)O` [NAC, N-acetyl-L-cysteine]?
**A.** DN T-cell frequency (DN T cells): 5.3±0.5%; CD4+/CD25+/FoxP3+ T cells (FoxP3; 4.8 g/day NAC, after 2 months, baseline 3.2±0.6%, p=0.018): 5.2±0.9%; FoxP3 expression in CD25+ DN T cells (FoxP3; after 2-month NAC treatment, baseline 1.29±0.23%, p=0.0160): 2.24±0.38%; percentage of FoxP3+ cells within the CD4+/CD25+ T-cell compartment (FoxP3; all NAC-treated patients, p=0.045): increased; GSH in whole blood (GSH in whole blood): increased; effect on mTOR in vitro (mTOR [1]): inhibits; pS6-RPhi T cells in the DN T-cell compartment (mTOR [2]; after 2 months, p=0.0104): 16.9±2.5%; pS6-RPhi T cells in the DN T-cell compartment (mTOR [2]; after 3 months, p=0.0095): 16.4±2.4%; pS6-RPhi T cells in the DN T-cell compartment (mTOR [2]; after 4 months, p=0.0009): 12.1±2.4%; CD3/CD28-induced mTOR activation (mTOR [2]; all T cells after 2 months and 3 months, rebounded after washout): diminished

— patent US20140275257A1, “N-ACETYL CYSTEINE COMPOSITIONS IN THE TREATMENT OF SYSTEMIC LUPUS ERYTHEMATOSUS” (Foundation for the State University of New York, priority 2013, published 2014)
